Results: patent US11891634B2, “PDE5A destabilizing domains” (The Board of Trustees of the Leland Stanford Junior …, priority 2017, dated 2024)

Key:
Assay type in all cases: cell-based, human
[1] = system: HCT116 cells transduced with the constructs; assay: Response to Sildenafil, GFP expression by flow cytometry in HCT116; conditions: 48 hours, HCT116
Method in brief: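 HCT116 cells stably expressing AcGFP-fused destabilizing domains from a lentiviral mCherry-marked vector (sorted on mCherry) were exposed to sildenafil at 0.01–100 μM for 48 hours. GFP mean fluorescence intensity was measured by flow cytometry.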

[2] = system: HCT 116 cells transduced with the PDE5A DD derived GFP constructs; assay: Response to Vardenafil, GFP expression by FACS in HCT116; conditions: for MFI / Stabilization ratio with Vardenafil: 48 hours, HCT116
Method in brief: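 HCT116 cells stably carrying lentiviral AcGFP fusions of PDE5A (535-860) mutants, sorted on mCherry, got DMSO or Vardenafil (10 μM, or 0.002–30 μM) for 48 h, and GFP MFI was read by flow cytometry. Basal expression is untreated GFP over parental autofluorescence; the stabilization ratio is treated over untreated MFI.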

[3] = system: HCT 116 cells transduced with the PDE5A DD derived GFP constructs; assay: Response to Tadalafil, GFP expression by FACS in HCT116; conditions: 48 hours, HCT116
Method in brief: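 HCT116 cells stably transduced (mCherry-sorted) with lentiviral PDE5A DD–AcGFP constructs, exposed to DMSO or Tadalafil 0.01–100 μM for 48 hrs. GFP mean fluorescence by FACS; stabilization ratio = ligand vs no-ligand signal, basal expression = no-ligand signal vs parental autofluorescence.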

## PDE5AC (#69): AcGFP fused to C-terminal DD 535-860 of PDE5A (Q589R, N636S, D687A, D764N, S815C), SEQ ID NO. 30
[1]; DMSO (no Sildenafil)
  MFI: 9575
[1]; Sildenafil 0.01 μM vs DMSO
  Stabilization ratio with Sildenafil: 1.0
[1]; Sildenafil 0.01 μM
  MFI: 9574
[1]; Sildenafil 0.02 μM vs DMSO
  Stabilization ratio with Sildenafil: 1.2
[1]; Sildenafil 0.02 μM
  MFI: 11755
[1]; Sildenafil 0.05 μM vs DMSO
  Stabilization ratio with Sildenafil: 1.2
[1]; Sildenafil 0.05 μM
  MFI: 11944
[1]; Sildenafil 0.14 μM
  MFI: 19733
[1]; Sildenafil 0.41 μM vs DMSO
  Stabilization ratio with Sildenafil: 3.1
[1]; Sildenafil 0.41 μM
  MFI: 30090
[1]; Sildenafil 1.23 μM vs DMSO
  Stabilization ratio with Sildenafil: 4.6
[1]; Sildenafil 1.23 μM
  MFI: 44180
[1]; Sildenafil 3.70 μM vs DMSO
  Stabilization ratio with Sildenafil: 5.5
[1]; Sildenafil 3.70 μM
  MFI: 52782
[1]; Sildenafil 11.11 μM vs DMSO
  Stabilization ratio with Sildenafil: 6.2
[1]; Sildenafil 11.11 μM
  MFI: 59723
[1]; Sildenafil 33.33 μM vs DMSO
  Stabilization ratio with Sildenafil: 6.8
[1]; Sildenafil 33.33 μM
  MFI: 65183
[1]; Sildenafil 100.00 μM vs DMSO
  Stabilization ratio with Sildenafil: 5.4
[1]; Sildenafil 100.00 μM
  MFI: 51774
[2]; DMSO (no Vardenafil)
  MFI: 9466
[2]; Table 15, MFI with DMSO / parental HCT116, Vardenafil experiment
  Basal: 4.84
[2]; Vardenafil 0.002 μM vs DMSO
  Stabilization ratio with Vardenafil: 1.1
[2]; Vardenafil 0.002 μM
  MFI: 10817
[2]; Vardenafil 0.005 μM
  MFI: 13682
[2]; Vardenafil 0.014 μM vs DMSO
  Stabilization ratio with Vardenafil: 2.9
[2]; Vardenafil 0.014 μM
  MFI: 27457
[2]; Vardenafil 0.041 μM vs DMSO
  Stabilization ratio with Vardenafil: 3.4
[2]; Vardenafil 0.041 μM
  MFI: 32264
[2]; Vardenafil 0.123 μM vs DMSO
  Stabilization ratio with Vardenafil: 5.3
[2]; Vardenafil 0.123 μM
  MFI: 49884
[2]; Vardenafil 0.370 μM vs DMSO
  Stabilization ratio with Vardenafil: 7.9
[2]; Vardenafil 0.370 μM
  MFI: 74730
[2]; Vardenafil 1.111 μM vs DMSO
  Stabilization ratio with Vardenafil: 6.6
[2]; Vardenafil 1.111 μM
  MFI: 62065
[2]; Vardenafil 3.333 μM vs DMSO
  Stabilization ratio with Vardenafil: 7.0
[2]; Vardenafil 3.333 μM
  MFI: 66625
[2]; Vardenafil 10 μM vs DMSO
  Stabilization ratio with Vardenafil: 6.8
[2]; Vardenafil 10 μM
  MFI: 64380
[2]; Vardenafil 30 μM vs DMSO
  Stabilization ratio with Vardenafil: 2.4
[2]; Vardenafil 30 μM
  MFI: 22775
[3]; DMSO (no Tadalafil)
  MFI: 8822
[3]; Tadalafil 0.01 μM vs DMSO
  Stabilization ratio with Tadalafil: 1.1
[3]; Tadalafil 0.01 μM
  MFI: 9337
[3]; Tadalafil 0.02 μM vs DMSO
  Stabilization ratio with Tadalafil: 1.2
[3]; Tadalafil 0.02 μM
  MFI: 10353
[3]; Tadalafil 0.05 μM vs DMSO
  Stabilization ratio with Tadalafil: 1.4
[3]; Tadalafil 0.05 μM
  MFI: 12365
[3]; Tadalafil 0.14 μM
  MFI: 19039
[3]; Tadalafil 0.41 μM vs DMSO
  Stabilization ratio with Tadalafil: 3.7
[3]; Tadalafil 0.41 μM
  MFI: 32821
[3]; Tadalafil 1.23 μM vs DMSO
  Stabilization ratio with Tadalafil: 5.9
[3]; Tadalafil 1.23 μM
  MFI: 52033
[3]; Tadalafil 3.7 μM vs DMSO
  Stabilization ratio with Tadalafil: 7.1
[3]; Tadalafil 3.7 μM
  MFI: 62558
[3]; Tadalafil 11.11 μM vs DMSO
  Stabilization ratio with Tadalafil: 7.9
[3]; Tadalafil 11.11 μM
  MFI: 69440
[3]; Tadalafil 33.33 μM vs DMSO
  Stabilization ratio with Tadalafil: 7.7
[3]; Tadalafil 33.33 μM
  MFI: 68289
[3]; Tadalafil 100 μM
  MFI: 67259
